# Reference: US8217035B2, “Pyrimidine derivatives used as PI-3-kinase inhibitors” (Novartis AG, priority 2006, dated 2012)
# System: A2780 ovarian cancer cells
# Experiment: Cellular proliferation in A2780 cells, Cell Titer Glo (Biological Method 4)
# Type: cell-based
# Settings: Homo sapiens; ovarian cancer cell line A2780, Biological Method 4
# Description: In addition, many of the compounds of Table 1 were tested to determine their inhibitory activity in a cellular proliferation assay according to Biological Method 4.
# The ability of the compounds of the invention to inhibit cellular proliferation were determined by using Cell Titer Glo, a commercially available assay from Promega Corporation. A2780 ovarian cancer cells were seeded in TC treated 96-well plates at a density of 1,000 per well in DMEM, 10% FBS, 1% Sodium Pyruvate, and 1% Penicillin Streptomycin for a minimum of 2 hrs prior to addition of compound. For each concentration of test compound, 2 μl (500×) aliquots of compound or 100% DMSO diluted in 500 μl of culture medium for 2× concentration then diluted 1× on the Cells. Cells were incubated for 72 hrs at 37° C., 5% CO2. After the 72 hour incubation, Cell Titer Glo reagent is added to determine number of viable cells remaining after exposure to the compound, and the EC50 value was calculated. The assay was performed according to the manufacturer's instruction (Promega Corporation, Madison, Wis. USA). Each experimental condition was performed in duplicate.
row,Compound,EC50 [nM]
1,Nc1ncc(-c2cc(Nc3nccc(C(F)(F)F)n3)nc(N3CCOCC3)n2)c(C(F)(F)F)n1 [Compound 216],< 10000
2,Nc1ccc(-c2cc(Nc3cc(C(F)(F)F)ccn3)nc(N3CCOCC3)n2)cn1 [Compound 350],< 25000
3,NC(=O)c1cccc(-c2cc(-c3ccc(N)nc3)nc(N3CCOCC3)n2)c1 [Compound 251],< 10000
4,CN(c1cc(-c2ccc(N)nc2)nc(N2CCOCC2)n1)C1CCOCC1 [Compound 368],< 10000
5,CC(=O)Nc1cccc(-c2cc(-c3ccc(N)nc3)nc(N3CCOCC3)n2)c1 [Compound 250],< 10000
6,CC(=O)N1CCC(Oc2ccc(Nc3cc(-c4cnc(N)nc4N)nc(N4CCOCC4)n3)cn2)CC1 [Compound 261],< 10000
7,Nc1ccc(-c2cc(Nc3cccc4[nH]ncc34)nc(N3CCOCC3)n2)cn1 [Compound 347],< 10000
8,CC(=O)Nc1ccc(Nc2cc(-c3ccc(N)nc3)nc(N3CCOCC3)n2)cc1 [Compound 360],< 10000
9,CC(=O)Nc1ccccc1-c1cc(-c2ccc(N)nc2)nc(N2CCOCC2)n1 [Compound 253],< 10000
10,Nc1ccc(-c2cc(-n3ncc4cccc(N)c43)nc(N3CCOCC3)n2)cn1 [Compound 345],< 10000
11,N#Cc1ccnc(Nc2cc(-c3cnc(N)cc3C(F)(F)F)nc(N3CCOCC3)n2)c1 [Compound 239],< 10000
12,Nc1ncc(-c2cc(C(=O)Nc3ccncc3)nc(N3CCOCC3)n2)cn1 [Compound 230],< 10000
13,N#Cc1ccc(Nc2cc(-c3cnc(N)cc3C(F)(F)F)nc(N3CCOCC3)n2)cn1 [Compound 284],< 10000
14,Nc1ncc(-c2nc(N3CCOCC3)ncc2N)cn1 [Compound 258],< 25000
15,Nc1ccc(-c2cc(Nc3ccc(-c4cnco4)cc3)nc(N3CCOCC3)n2)cn1 [Compound 357],< 25000
16,COc1cc2cc(Nc3cc(-c4ccc(N)nc4)nc(N4CCOCC4)n3)cnc2cc1OC [Compound 311],< 1000
17,Nc1ncc(-c2cc(-c3ccc(F)nc3)nc(N3CCOCC3)n2)cn1 [Compound 278],< 10000
18,Nc1cc(C(F)(F)F)c(-c2cc(Oc3ccc4ncccc4c3)nc(N3CCOCC3)n2)cn1 [Compound 217],< 10000
19,Nc1ncc(-c2cc(N3CCOC(c4ccccc4)C3)nc(N3CCOCC3)n2)c(C(F)(F)F)n1 (centres unmarked) [Compound 343],< 25000
20,Nc1ncc(-c2cc(Nc3cnccc3C(F)(F)F)nc(N3CCOCC3)n2)cn1 [Compound 390],< 10000
21,Nc1ccc(-c2cc(-c3ccncc3)nc(N3CCOCC3)n2)cn1 [Compound 246],< 10000
22,Nc1ccc(-c2cc(Nc3cccc(S(N)(=O)=O)c3)nc(N3CCOCC3)n2)cn1 [Compound 362],< 10000
23,CS(=O)(=O)Nc1cccc(-c2cc(-c3ccc(N)nc3)nc(N3CCOCC3)n2)c1 [Compound 249],< 10000
24,Nc1cc(Cl)c(-c2cc(OC3CCOCC3)nc(N3CCOCC3)n2)cn1 [Compound 328],< 25000
25,Nc1ncc(-c2cc(-c3cncc(O)c3)nc(N3CCOCC3)n2)cn1 [Compound 274],< 1000

# Target: PI3 kinase alpha (Homo sapiens, UniProt P42336)
# Sequence (P42336 whole entry): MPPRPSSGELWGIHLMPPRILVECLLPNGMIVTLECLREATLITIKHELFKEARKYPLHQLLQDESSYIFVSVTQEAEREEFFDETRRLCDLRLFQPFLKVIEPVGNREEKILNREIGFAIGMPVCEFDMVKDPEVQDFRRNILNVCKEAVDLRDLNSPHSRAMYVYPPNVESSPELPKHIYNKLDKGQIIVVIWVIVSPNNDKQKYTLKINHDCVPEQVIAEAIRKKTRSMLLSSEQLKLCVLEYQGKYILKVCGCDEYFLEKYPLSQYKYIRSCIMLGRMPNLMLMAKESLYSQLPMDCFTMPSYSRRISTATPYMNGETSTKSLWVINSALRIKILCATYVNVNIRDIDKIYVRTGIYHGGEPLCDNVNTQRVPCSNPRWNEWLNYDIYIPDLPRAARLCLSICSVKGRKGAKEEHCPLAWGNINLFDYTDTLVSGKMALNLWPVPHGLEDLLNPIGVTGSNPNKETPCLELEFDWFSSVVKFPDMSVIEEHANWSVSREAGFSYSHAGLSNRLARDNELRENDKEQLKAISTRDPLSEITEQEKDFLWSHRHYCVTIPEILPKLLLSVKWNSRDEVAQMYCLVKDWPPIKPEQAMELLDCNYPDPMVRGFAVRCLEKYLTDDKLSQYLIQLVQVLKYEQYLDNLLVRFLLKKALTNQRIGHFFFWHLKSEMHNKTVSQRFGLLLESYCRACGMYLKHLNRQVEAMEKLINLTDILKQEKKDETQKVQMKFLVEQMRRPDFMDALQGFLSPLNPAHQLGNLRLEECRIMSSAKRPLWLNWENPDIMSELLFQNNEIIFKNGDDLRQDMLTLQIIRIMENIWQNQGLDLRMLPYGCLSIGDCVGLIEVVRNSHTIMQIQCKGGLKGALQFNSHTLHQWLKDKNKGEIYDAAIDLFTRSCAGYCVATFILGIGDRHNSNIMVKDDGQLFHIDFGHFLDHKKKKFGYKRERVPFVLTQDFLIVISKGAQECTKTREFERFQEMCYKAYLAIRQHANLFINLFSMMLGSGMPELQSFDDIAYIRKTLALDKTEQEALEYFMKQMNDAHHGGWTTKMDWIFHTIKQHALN
# Sequence (P27986 whole entry partner): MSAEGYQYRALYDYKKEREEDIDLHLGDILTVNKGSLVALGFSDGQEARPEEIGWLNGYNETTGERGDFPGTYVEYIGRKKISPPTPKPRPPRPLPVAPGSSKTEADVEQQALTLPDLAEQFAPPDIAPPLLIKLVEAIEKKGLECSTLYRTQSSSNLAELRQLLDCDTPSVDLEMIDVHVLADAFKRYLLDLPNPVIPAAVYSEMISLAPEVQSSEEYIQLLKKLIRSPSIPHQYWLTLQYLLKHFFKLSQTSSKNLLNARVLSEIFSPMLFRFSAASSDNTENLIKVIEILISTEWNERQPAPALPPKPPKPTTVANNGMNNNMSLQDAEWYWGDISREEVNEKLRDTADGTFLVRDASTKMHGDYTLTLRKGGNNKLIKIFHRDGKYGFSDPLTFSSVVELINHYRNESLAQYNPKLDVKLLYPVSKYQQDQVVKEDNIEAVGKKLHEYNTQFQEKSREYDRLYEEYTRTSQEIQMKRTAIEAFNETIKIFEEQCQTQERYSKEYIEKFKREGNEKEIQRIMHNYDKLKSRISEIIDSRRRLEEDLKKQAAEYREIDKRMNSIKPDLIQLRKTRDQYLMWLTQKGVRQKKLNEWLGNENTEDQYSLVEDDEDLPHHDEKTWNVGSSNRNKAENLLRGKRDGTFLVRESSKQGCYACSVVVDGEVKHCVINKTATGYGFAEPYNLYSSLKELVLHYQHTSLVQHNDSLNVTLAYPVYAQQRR
# Experiment: PI3K ATP depletion assay (Biological Method 1, Assay 3; KinaseGlo luminescence)
# Type: biochemical
# Settings: ATP depletion assay, Biological Method 1; read-out: PI3 Kinase Alpha, IC50
# Method in brief: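 Compound in DMSO was mixed with 10 nM PI3 kinase and 5 μg/mL phosphatidylinositol, and the reaction was started with 2 μM ATP. It ran to about 50% ATP depletion and was stopped with KinaseGlo.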
row,Compound,IC50 [nM]
1,Nc1ncc(-c2cc(Nc3nccc(C(F)(F)F)n3)nc(N3CCOCC3)n2)c(C(F)(F)F)n1 [Compound 216],< 1000
2,Nc1ccc(-c2cc(Nc3cc(C(F)(F)F)ccn3)nc(N3CCOCC3)n2)cn1 [Compound 350],< 1000
3,NC(=O)c1cccc(-c2cc(-c3ccc(N)nc3)nc(N3CCOCC3)n2)c1 [Compound 251],< 1000
4,CN(c1cc(-c2ccc(N)nc2)nc(N2CCOCC2)n1)C1CCOCC1 [Compound 368],< 1000
5,CC(=O)Nc1cccc(-c2cc(-c3ccc(N)nc3)nc(N3CCOCC3)n2)c1 [Compound 250],< 1000
6,CC(=O)N1CCC(Oc2ccc(Nc3cc(-c4cnc(N)nc4N)nc(N4CCOCC4)n3)cn2)CC1 [Compound 261],< 1000
7,Nc1ccc(-c2cc(Nc3cccc4[nH]ncc34)nc(N3CCOCC3)n2)cn1 [Compound 347],< 1000
8,CC(=O)Nc1ccc(Nc2cc(-c3ccc(N)nc3)nc(N3CCOCC3)n2)cc1 [Compound 360],< 1000
9,CC(=O)Nc1ccccc1-c1cc(-c2ccc(N)nc2)nc(N2CCOCC2)n1 [Compound 253],< 1000
10,Nc1ccc(-c2cc(-n3ncc4cccc(N)c43)nc(N3CCOCC3)n2)cn1 [Compound 345],< 1000
11,N#Cc1ccnc(Nc2cc(-c3cnc(N)cc3C(F)(F)F)nc(N3CCOCC3)n2)c1 [Compound 239],< 1000
12,Nc1ncc(-c2cc(C(=O)Nc3ccncc3)nc(N3CCOCC3)n2)cn1 [Compound 230],< 1000
13,N#Cc1ccc(Nc2cc(-c3cnc(N)cc3C(F)(F)F)nc(N3CCOCC3)n2)cn1 [Compound 284],< 1000
14,Nc1ncc(-c2nc(N3CCOCC3)ncc2N)cn1 [Compound 258],< 1000
15,Nc1ccc(-c2cc(Nc3ccc(-c4cnco4)cc3)nc(N3CCOCC3)n2)cn1 [Compound 357],< 1000
16,COc1cc2cc(Nc3cc(-c4ccc(N)nc4)nc(N4CCOCC4)n3)cnc2cc1OC [Compound 311],< 1000
17,Nc1ncc(-c2cc(-c3ccc(F)nc3)nc(N3CCOCC3)n2)cn1 [Compound 278],< 1000
18,Nc1cc(C(F)(F)F)c(-c2cc(Oc3ccc4ncccc4c3)nc(N3CCOCC3)n2)cn1 [Compound 217],< 1000
19,Nc1ncc(-c2cc(N3CCOC(c4ccccc4)C3)nc(N3CCOCC3)n2)c(C(F)(F)F)n1 (centres unmarked) [Compound 343],< 1000
20,Nc1ncc(-c2cc(Nc3cnccc3C(F)(F)F)nc(N3CCOCC3)n2)cn1 [Compound 390],< 1000
21,Nc1ccc(-c2cc(-c3ccncc3)nc(N3CCOCC3)n2)cn1 [Compound 246],< 1000
22,Nc1ccc(-c2cc(Nc3cccc(S(N)(=O)=O)c3)nc(N3CCOCC3)n2)cn1 [Compound 362],< 1000
23,CS(=O)(=O)Nc1cccc(-c2cc(-c3ccc(N)nc3)nc(N3CCOCC3)n2)c1 [Compound 249],< 1000
24,Nc1cc(Cl)c(-c2cc(OC3CCOCC3)nc(N3CCOCC3)n2)cn1 [Compound 328],< 1000
25,Nc1ncc(-c2cc(-c3cncc(O)c3)nc(N3CCOCC3)n2)cn1 [Compound 274],< 1000
